One molecule from patent publication EP3551232B1, “STABLE F-DOPA FORMULATIONS AND USES THEREOF” (priority 2016, dated 2018) can be followed below.

A short description of series [1]: in situ FT-IR monitoring of F-DOPA degradation in aqueous solution. The series is classed as physicochemical. The method, then:
Aimed at better understanding the nature of the F-DOPA degradation products, the progress of the oxidation of F-DOPA was investigated by in situ FT-IR experiments at pH 8.0 and 5.15 at 25 °C (Figure 3).
Nevertheless, an overlapping of the carbonyl and carboxyl groups in the range 1670-1650 cm^-1 of the postulated o-quinone derivatives (Scheme 1) should occur in aqueous solution. However, similar o-quinone species show typical bands at 1660, 1480 and 1380 cm^-1, and are known to be very unstable turning black the solution upon standing. […] Thus, in situ IR experiments confirm the long-time stability of F-DOPA in acidic conditions (pH < 5.15) and the high propensity to undergo degradation under basic conditions. The pH-rate profile was carried out in order to obtain kinetic data.
The degradation pathway and the progress of the F-DOPA oxidation in aqueous solutions were further investigated by in situ FT-IR experiments at pH 8.0 and 5.15 at 25 °C. The experiments were carried out using a Mettler-Toledo ReactIR 4000 and Ic15 instruments equipped with a diamond-tipped (DiComp®) probe (Spectra elaborated with ConcIR® software), monitoring the C=O stretching of the F-DOPA and following new absorptions likely related to oxidized products (Castagnolo, D. et al. 2015; Mansueto, R. et al 2014). In a Schlenk tube equipped with a stirring bar and the React-IR probe, a 0.02 M F-DOPA aqueous solution at pH 5.15 was introduced via syringe at room temperature. Reference spectra for the pure solvent and F-DOPA were collected separately before starting the experiments. The solution was stirred for 10 min, to verify the stability of the readout, and spectra collected every 30 sec. The solution was then stirred for 24 h and constantly monitored by IR spectroscopy.

The nature of series [2]: UV-Vis absorbance stability in sterile physiological solution. It is filed as physicochemical. From the text:
This behavior was further supported by monitoring the change in UV-Vis absorbance of a pH 6.4 sterile physiological solution containing F-DOPA. […]

Series [3] in a line: enantioselective HPLC (optical stability, racemization). The series is classed as physicochemical. Particulars: 4 mg/mL, 24 h at both 25 and 45 °C, sterile perfusion solution at pH 6.0.
Description: The HPLC system used to check the chemical stability of F-DOPA, related to its possible oxidation and racemization, consisted of a Waters Associates (Milford, MA, USA) model 1515 equipped with an isocratic pump, a Waters 2487 UV-vis detector, and the Breeze Software to analyze the chromatographic data. The HPLC analysis were performed on a reverse-phase column (Agilent Zorbax SB-Aq C8; 150 x 4.6 mm - 5 µm) kept at room temperature using detection wavelengths of 200 and 280 nm. The mobile phase consisted of 6.9 g/L solution of sodium dihydrogen phosphate adjusted to pH 2.4 with a 4.8 g/L solution of phosphoric acid, and the flow rate was 1 mL/min. The standard injection volume was 20 µL. […] To evaluate optical stability of F-DOPA, chromatograms were recorded on a teicoplanin aglycone-based chiral stationary phase (250 × 4.6 mm, particle size 5 µm, pore size 8 nm) CHIROBIOTIC (ASTEC, Whippany, NJ, USA), by eluting with a mixture 80% acetonitrile and 20% water, at a flow rate of 1 mL/min and a temperature of 25 °C.
A short description of series [4]: amount of F-DOPA dissolved in the formulation compositions. It is filed as physicochemical. Particulars: in the ND1, ND2 and ND3 compositions. Here is the method:
Optimum stability for F-DOPA in aqueous formulations is achieved by maintaining the pH at acidic values, by excluding oxygen and incorporating in the formula a chelating agent for metal ion initiators of free-radical oxidation reactions. […] In order to formulate F-DOPA at the optimum acidic pH range, the appropriate buffer was selected. Lactate buffer (1 mM, pH 5.0) was chosen to formulate the parenteral solution, firstly because lactic acid is currently used in intravenous solutions and is already present in commercial formulation and, secondly, because this solution has a pH value compatible with the direct infusion avoiding or minimizing the pain at the injection site. Finally, common methods for decelerating the initiation step require eliminating initiators and catalysts from the formulation. Metals ions can be sequestered by the use of chelators, such as EDTA, citric acid and tartaric acid. […] For comparison purposes the ND3 formulation, having the same commercially available formulation "master formula", was also prepared by solubilizing F-DOPA in an aqueous solution of 17.5 mM acetic acid (1.05 mg/mL, pH = 3.1). In order to mimic the commercial formulation, immediately before its use the pH of ND3 was adjusted to a higher pH value (measured pH = 7.2) by the addition of 100 µL per mL of a sterile solution of 1 M (84 mg/mL) sodium bicarbonate. […]

Series [5] can be described thus: cell viability assay, fiber counting (mortality rate). Particulars: male, C57BL6, mouse. The method, then: (§1) Single fibers were isolated from the Flexor Digitorum Brevis (FDB) muscles dissected from male C57BL6 mice (N° of mice = 3). Isolated fibers were obtained by incubating the FDB muscles with Dulbecco's modified Eagle's medium (DMEM+) solution composed by IX antibiotics (1%), L-glutamine (1%), FBS (10%) (EuroClone, S.p.A. Milan, Italy) enriched with 0.3 mg/ml collagenase type XI-S (Sigma Chemical Co.).
(§2) For "in vitro" cell viability tests, the F-DOPA powder was directly solubilized in the complete cell culture medium (DMEM+). Stock solutions of ND1, ND2 and ND3 formulations were prepared at the concentration of 10 mg/ml. Microliter amounts of the stock solutions were then added to DMEM as needed, to obtain the final concentrations.
(§3) The fibers were plated, counted under a microscope, and incubated for 3h with increasing concentrations of F-DOPA, ND1, ND2 and ND3 formulations and an imaging analysis was then performed. At the end of the incubation time, the cytotoxicity expressed as mortality rate with respect to the control condition was evaluated by counting the fibers before and after the incubation period.
(§4) The mortality rate of the fibers and cells was calculated by the following equation: [(Ntreated/NCTRL)×100]−100 [formula] where Ntreated is the number of the treated cells and NCTRL is the number of untreated cells.
(§5) The following three parametric logistic function was used to fit the concentrationmortality data of different F-DOPA formulations: percentage change of the mortality rate(%) = Emax ((1+EC50/DOSE))^slope [formula] where Emax, is the maximal drug effect; EC50, is the concentration needed to cause the 50% percent change of the maximal effect; DOSE, is the applied concentration; slope, is the hill slope of the curve (SIGMAPlot 10.0, Systat Software, Inc.).

Series [6] has as its system mouse skeletal muscle fibers. The series is described as above. Particulars: Mus musculus. Here is the method:
as §1, §2, §3, §4, §5

For orientation: mortality means the share of the test organisms that died. High values mean fewer survivors, low ones more survivors. Usually EC50 stands for the midpoint of the concentration-response curve. Regarding `N[C@@H](Cc1cc(O)c(O)cc1F)C(=O)O` [F-DOPA, (2S)-2-Amino-3-(6-fluoro-3,4-dihydroxyphenyl)propanoic acid], the “loss of vC=O absorbance” value in series [1] (buffer at pH = 8.0, within 2 h, 25 °C) worked out at 10%. The “additional peaks in the range 1800-1200 cm^-1 (FT-IR)” value in series [1] (pH 5.15, after 16 h, 25 °C) is listed as “no additional peaks”. Besides, in series [1] (stirring at pH = 8.0 for 24 h), the “appearance of the transparent aqueous solution” value is “turned to black”. The “decrease in F-DOPA initial concentration” value in series [2] (pH 6.4, degassed sterile 0.9% NaCl, 1 to 4 mg/mL, 25 or 45 °C, 6 h, absorbance at 298 nm) was “less than 5%”. Also, the colour of sample result in series [2] (pH 6.4, sterile 0.9% NaCl, after 24 h incubation) was “pale pink color”. In addition, the racemization entry in series [3] is recorded as “no racemization occurs”. For the same molecule, in series [4], the “F-DOPA dissolved per mL” value came to 10 mg/mL. In series [5], the mortality at 3 h, 0.02 mg/ml is < 15% and the mortality at 3 h, 0.05 mg/ml is > 50%. This molecule also gave an Emax in series [6] of 100%. This molecule also displayed an EC50 in series [6] (3 h) of 185 µM.
